Consider 19 compounds from US5158770A, “Aqueous solution containing ginkgo leaf extract” (Freund Industrial Co., Ltd., priority 1989, dated 1992).

As usually defined, the solubility is how much of the substance goes into solution per volume.

The nature of data set [1]: Solubility Test-1: dissolution of ginkgo leaf extract dry powder in aqueous solution of the compound. It is filed as physicochemical. More on the design: key: .largecircle.: dissolved to form a transparent aqueous solution; X: insoluble. To be noted: 5 g compound in 100 ml water at 20° C., 10 g ginkgo leaf extract, shaken 10 minutes. How it is done: To each aqueous solution was added 10 g of dry powder of the ginkgo leaf extract and shaken for 10 minutes to observe the dissolution state.

A further data set is described as follows: physchem. To be noted: water.
A short description of data set [2]: Solubility of the organic/inorganic compound in water.

Values after ≈ are worked out from the molar mass of the structure shown. Structures can show the parent of a compound that is named as a salt.

`CC(C)(CO)[C@@H](O)C(=O)NCCC(=O)O` [Calcium pantothenate]: the Dissolution state entry in data set [1] was “.largecircle”.

Turning to `N#CN=C(N)N` [Dicyandiamide], in data set [1], the Dissolution state result was “X”. This compound also registered a solubility in the data set “physchem” of 32 mg/mL (≈ 381 mM).

Regarding `OCC(O)CO` [Glycerin], the Dissolution state entry in data set [1] is on record as “X”.

As for `Cl.N[C@@H](Cc1c[nH]cn1)C(=O)O` [Histidine hydrochloride], in data set [2], the solubility is 420 mg/mL.

`CC[C@H](C)[C@H](N)C(=O)O` [Isoleucine]: the solubility in the data set “physchem” is 38 mg/mL (≈ 290 mM).

Turning to `CCCCCCCCCCCC[N+](C)(C)C.[Cl-]` [Lauryltrimethylammonium chloride, Lauryltrimethyl-ammonium chloride], the Dissolution state result in data set [1] is “.largecircle”. Besides, the solubility in “physchem” was 760 mg/mL.

The compound `CSCC[C@H](N)C(=O)O` [Methionine] returned a solubility in data set [2] of 33 mg/mL (≈ 221 mM). Further, the Dissolution state result in data set [1] is reported as “X”.

`NC(=O)c1cccnc1` [Nicotinic acid amide] displayed a solubility in data set [2] of 500 mg/mL (≈ 4090 mM). In data set [1], the Dissolution state entry was “.largecircle”.

`O=C(O)c1cccnc1` [Nicotinic acid] registered a solubility in data set [2] of 16 mg/mL (≈ 130 mM). Also, the Dissolution state result in data set [1] was “X”.

Turning to `Cc1ncc(CO)c(CO)c1O.Cl` [Pyridoxine hydrochloride], in data set [1], the Dissolution state entry is “.largecircle”. In the data set “physchem”, this compound registered a solubility of 190 mg/mL.

The compound `Oc1cccc(O)c1O` [Pyrogallol] showed a solubility in the data set “physchem” of 625 mg/mL (≈ 4960 mM).

The compound `Cc1cc2nc3c(=O)[nH]c(=O)nc-3n(C[C@H](O)[C@H](O)[C@H](O)CO)c2cc1C` [Riboflavin] registered a solubility in data set [2] of 0.1 mg/mL (≈ 0.266 mM). Moreover, in data set [1], the Dissolution state result is given as “X”.

`OC[C@@H](O)[C@@H](O)[C@H](O)[C@@H](O)CO` [Sorbitol]: the solubility in data set [2] worked out at 720 mg/mL (≈ 3950 mM). Also, in data set [1], the Dissolution state result was “X”.

Turning to `OC[C@H]1O[C@@](CO)(O[C@H]2O[C@H](CO)[C@@H](O)[C@H](O)[C@H]2O)[C@@H](O)[C@@H]1O` [Sucrose], the Dissolution state entry in data set [1] was “X”. The same compound registered a solubility in “physchem” of 664 mg/mL (≈ 1940 mM).

In “physchem”, `NCCS(=O)(=O)O` [Taurine] displayed a solubility of 90 mg/mL (≈ 719 mM).

On to `Cc1ncc(C[n+]2csc(CCO)c2C)c(N)n1` [Thiamine hydrochloride], for which, in data set [2], the solubility was 1000 mg/mL. The Dissolution state result in data set [1] was “.largecircle”.

In the case of `C[C@@H](O)[C@H](N)C(=O)O` [Threonine], the Dissolution state entry in data set [1] is reported as “.largecircle”.

As to `NC(N)=O` [Urea], in data set [1], the Dissolution state entry is given as “.largecircle”.

In the case of `CC(C)[C@H](N)C(=O)O` [Valine], the solubility in the data set “physchem” was determined as 85 mg/mL (≈ 726 mM).
